Experimental data reported in US9682114B2, “Plant extracts of Ptaeroxylon obliquum nand compounds having antimicrobial and antihelminthic activity” (UNIVERSITY OF PRETORIA, priority 2013, dated 2017).
Values after ≈ are worked out from the molar mass of the structure shown. Read-outs that look alike come from different tables or passages of the source.

How the values were obtained:
[1] = tested on: Candida albicans standard strain (ATCC 10231) and clinical isolates; assay: Re-inoculation and re-incubation of MIC wells, cidal/static effects; assay type: cell-based; settings: for Growth after re-inoculation and re-incubation: 35° C. for 24 h
[2] = tested on: Candida albicans standard strain (ATCC 10231) and clinical isolates; assay: Broth micro-dilution assay, minimal inhibitory concentration (MIC); assay type: cell-based
[3] = tested on: Candida albicans standard strain (ATCC 10231) and clinical isolates; assay: Minimal fungicidal concentration (MFC) assay; assay type: cell-based; settings: for Subcidal concentration: concentration slightly below the MFC; for MFC: mean value
Method: Minimal Fungicidal Concentration Determination
The minimal fungicidal concentration (MFC) values were determined as the lowest concentration of the extract that inhibited 100 percent growth of C. albicans standard strain (ATCC 10231) and clinical isolates.
Minimal Fungicidal Concentration Assay
The assay was initiated by pouring fresh sterile water aliquots (100 μl) into the wells of a microtitre plate. […] 50 μl of a 0.2 mg/ml aqueous solution of INT (Sigma) was added to each well. These suspensions were re-incubated at 35° C. for 24 h.

[4] = tested on: adhesion of C. albicans to human buccal epithelial cells; assay: Adhesion assay of C. albicans to human buccal epithelial cells (HBEC); assay type: cell-based, Candida albicans / human; settings: 1-h exposure
Method: Preparation of Yeast and Buccal Epithelial Cells
For preparation of yeast and buccal epithelial cells the methods of Taweechaisupapong et al., 2005 were used with some modification.
C. albicans standard strain (ATCC 10231) and clinical isolates were maintained on Sabouraud-dextrose agar and grown in the yeast phase in Sabouraud-dextrose broth for this study. The organisms were washed three times in normal saline (NSS) by centrifugation at 5000 rpm for 10 minutes and finally suspended in NSS to 4×10^7 cells/ml (MacFarlane standard 1).
Human buccal epithelial cells (HBEC) were collected from healthy individual subjects by gently scraping the cheek mucosa with a sterile wooden spatula. To minimize individual variations, HBEC from the twenty healthy individuals were pooled in 10 ml of sterile NSS (Sandin et al., 1987). The pooled HBEC suspension was washed three times in NSS by centrifugation at 5000 rpm for 10 minutes to eliminate debris and loosely attached micro-organisms. Washed epithelial cells were confirmed to have no attached yeast before the adherence test. The HBEC was then re-suspended in NSS to a concentration of 9×10^8 cells/ml (by haemocytometer) and used immediately for the adhesion assay. The cells were collected at the same time of day on each occasion to minimize any possible effect of diurnal variations of HBEC on yeast adherence.
Adhesion of C. albicans standard strain (ATCC 10231) and clinical isolates to HBEC was determined as follows: 0.2 ml of P. obliquum acetone leaf extract was serially two-fold diluted with normal saline (NSS) in tubes. Tubes containing 0.2 ml of amphotericin B and NSS served as positive and negative controls, respectively. 0.1 ml of HBEC and 0.1 ml of the yeast suspension prepared as described previously were added to each tube, mixed gently and incubated at 37° C. for 1 hour with gentle agitation. The suspension was then diluted in 1 ml of sterile NSS.
The cells were filtered through a 12 μm pore size polycarbonate filter (Millipore), and washed twice with 15 ml of sterile NSS to remove unattached fungi. Each filter was carefully removed with forceps and placed on a glass slide with the HBEC against the glass surface. After 30 s, the filter was gently removed; leaving the HBEC adhered to the glass slide. The slides were air-dried, fixed with methanol and stained with Gram's dye. The number of yeast cells adhering to 100 HBEC was determined by counting in a light microscopy (Nikon Trans microscope) at ×400 magnification and photographed with a Nixon digital camera DXM 1200 F.
The adhesion assay is a modification of a method previously described by Kimura and Pearsall (1978) and by Taweechaisupapong et al. (2005).
The numbers of fungi adhering per 100 human buccal epithelial cells were counted and the percentage reduction was determined as follows: crude plant extract concentration divided by the control (yeast+HBEC)×100 minus 100=% reduction.

in vitro = settings: LC50 (cytotoxicity)
Description: The MTT assay was used to determine the cytotoxicity of dried acetone extracts of H. caffrum (leaves); P. obliquum (leaves); R. melanophloeos (leaves) and S. birrea (stem bark) reconstituted in dimethyl sulphoxide (DMSO) against Mouse fibroblast cells (obtained from the Department of Plant Science, Faculty of Natural and Agricultural Sciences, University of Pretoria, South Africa).
MTT (yellow) is reduced into a formazan (purple) by viable cells. The colour intensity of the formazan produced, which is directly proportional to the number of viable cells, is measured using a spectrophotometer (Mosmann, 1983; Shai, 2007).
Cells were maintained in minimal essential medium (MEM) (Highveld Biological, South Africa) supplemented with 0.1% gentamicin (Virbac) and 5% foetal calf serum (Adcock-lngram). […] Dried crude plant extracts (100 mg) were reconstituted in 1 ml of DMSO and serial 10-fold dilutions of each extract were prepared in growth medium. The growth medium on sub-confluent monolayer cells grown overnight in microtitre plates was removed and cells were exposed to 200 μl of the extracts at different concentrations and incubated again at 37° C. for 5 days. Viability of cells was determined using the tetrazolium-based colorimetric assay (MTT assay) described by Mossmann (1983). Before the addition of MTT, the extract-containing medium on the cells was replaced with fresh culture medium to exclude reduction of the tetrazolium compound by plant extracts. The assay is based on mitochondrial dehydrogenase activity which is assessed by the reductive cleavage of the tetrazolium salt MTT [3-(4.5-dimethylthiazolyl)2.5-diphenyltetrazolium bromide] due to the succinic dehydrogenase present in living cells to yield a purple formazan dye. The cells were incubated with 30 μl of 5 mg/ml MTT in phosphate-buffered saline (PBS) for four hours. Thereafter, medium was removed and cells washed with PBS. DMSO (50 μl) was added to the cells and absorbance was measured using a Versamax microplate reader at 570 nm. Berberine chloride (Sigma) was used as a positive control, wells containing only cells acted as the negative control and a solvent control was also included. The percentage cell viability following the addition of varying concentrations of the extracts in relation to controls was calculated. The LC50 values were calculated (using SoftMax Pro4.8 Software) as the concentration of plant extracts resulting in 50 percent reduction of absorbance compared to untreated cells. Tests were carried out in quadruplicate and each experiment was repeated three times.

Microsporum canis = settings: cited from earlier work
Sporothrix schenckii = settings: cited from earlier work
[5] = tested on: monkey kidney (Vero) cells; settings: cited from earlier work
[6] = tested on: S. aureus, Salmonella typhi, Vibrio cholera, Escherichia coli, Shigella spp.; settings: cited from earlier work
Candida albicans = settings: C. albicans; cited from earlier work
Enterococcus feacalis = settings: cited from earlier work
[7] = C. albicans 1051604, Amphotericin B 0.6 mg/ml
[8] = C. albicans ATCC 10231, Amphotericin B 0.11 mg/ml
[9] = C. albicans M0824, Amphotericin B 0.6 mg/ml
[10] = Candida albicans, C. albicans ATCC 10231, mean value, read-out: MIC

C[C@@H]1[C@H](O)[C@@H](C)/C=C/C=C/C=C/C=C/C=C/C=C/C=C/[C@H](O[C@@H]2O[C@H](C)[C@@H](O)[C@H](N)[C@@H]2O)C[C@@H]2O[C@](O)(C[C@@H](O)C[C@@H](O)[C@H](O)CC[C@@H](O)C[C@@H](O)CC(=O)O[C@H]1C)C[C@H](O)[C@H]2C(=O)O [Amphotericin B, reference compound]
Cidal/static effects ([1]; C. albicans 1051255): static
Growth after re-inoculation and re-incubation ([1]; C. albicans 1051255): yes
Cidal/static effects ([1]; C. albicans M0824): static
Growth after re-inoculation and re-incubation ([1]; C. albicans M0824): yes
MIC ([2]; 12 h incubation, C. albicans 1051255): 30 µg/mL (≈ 32.5 µM)
MIC ([2]; 12 h incubation, C. albicans 1051604): 60 µg/mL (≈ 64.9 µM)
MIC ([2]; 12 h incubation, C. albicans 1051608): 110 µg/mL (≈ 119 µM)
MIC ([2]; 12 h incubation, C. albicans ATCC 10231): 110 µg/mL (≈ 119 µM)
MIC ([2]; 12 h incubation, C. albicans M0824): 30 µg/mL (≈ 32.5 µM)
MIC ([2]; 12 h incubation, C. albicans M0825): 30 µg/mL (≈ 32.5 µM)
MIC ([2]; 12 h incubation, C. albicans M0826): 60 µg/mL (≈ 64.9 µM)
MIC ([2]; 24 h incubation, C. albicans 1051255): 230 µg/mL (≈ 249 µM)
MIC ([2]; 24 h incubation, C. albicans 1051604): 60 µg/mL (≈ 64.9 µM)
MIC ([2]; 24 h incubation, C. albicans 1051608): 110 µg/mL (≈ 119 µM)
MIC ([2]; 24 h incubation, C. albicans ATCC 10231): 110 µg/mL (≈ 119 µM)
MIC ([2]; 24 h incubation, C. albicans M0824): 110 µg/mL (≈ 119 µM)
MIC ([2]; 24 h incubation, C. albicans M0825): 60 µg/mL (≈ 64.9 µM)
MIC ([2]; 24 h incubation, C. albicans M0826): 110 µg/mL (≈ 119 µM)
MIC ([2]; C. albicans ATCC 10231, mean value): 110 µg/mL (≈ 119 µM)
MIC ([2]; C. albicans clinical isolate 1051255, mean value): 30 µg/mL (≈ 32.5 µM)
MIC ([2]; C. albicans clinical isolate 1051604, mean value): 60 µg/mL (≈ 64.9 µM)
MIC ([2]; C. albicans clinical isolate 1051608, mean value): 110 µg/mL (≈ 119 µM)
MIC ([2]; C. albicans clinical isolate M0824, mean value): 30 µg/mL (≈ 32.5 µM)
MIC ([2]; C. albicans clinical isolate M0825, mean value): 30 µg/mL (≈ 32.5 µM)
MIC ([2]; C. albicans clinical isolate M0826, mean value): 60 µg/mL (≈ 64.9 µM)
Subcidal concentration ([3]; C. albicans 1051604): 0.06
Subcidal concentration ([3]; C. albicans ATCC 10231): 0.11
MFC ([3]; C. albicans ATCC 10231): 110 µg/mL (≈ 119 µM)
Subcidal concentration ([3]; C. albicans M0824): 0.06
MFC ([3]; C. albicans clinical isolate 1051255): 230 µg/mL (≈ 249 µM)
MFC ([3]; C. albicans clinical isolate 1051604): 60 µg/mL (≈ 64.9 µM)
MFC ([3]; C. albicans clinical isolate 1051608): 110 µg/mL (≈ 119 µM)
MFC ([3]; C. albicans clinical isolate M0824): 110 µg/mL (≈ 119 µM)
MFC ([3]; C. albicans clinical isolate M0825): 60 µg/mL (≈ 64.9 µM)
MFC ([3]; C. albicans clinical isolate M0826): 110 µg/mL (≈ 119 µM)
Number of yeast per 100 HBEC [4, 7]: 10
Reduction in adherence % [4, 7]: 95.05%
Number of yeast cells per 100 HBEC [4, 8]: 109
Reduction in adherence % [4, 8]: 38.42%
Number of yeast per 100 HBEC [4, 9]: 12
Reduction in adherence % [4, 9]: 93.41%

COc1ccc2cc3[n+](cc2c1OC)CCc1cc2c(cc1-3)OCO2 [Berberine, Berberine chloride, reference compound]
CC50 at 5 days (in vitro; mouse): 9.04 µg/mL

C=C(C)[C@@H]1CC[C@]2(C)CC[C@]3(C)[C@H](CC[C@@H]4[C@@]5(C)CC[C@H](O)C(C)(C)[C@@H]5CC[C@]43C)[C@@H]12 [Compound 1.1, Lupeol]
MIC (Shai et al., 2008) (Microsporum canis): 16 µg/mL (≈ 37.5 µM)
MIC (Shai et al., 2008) (Sporothrix schenckii): 12 µg/mL (≈ 28.1 µM)
CC50 at 5 days (in vitro; mouse fibroblast cells, MTT, 5 days): 0.00148 µg/mL (≈ 0.00347 µM)
cytotoxic LC50 (Shai et al., 2008) [5]: 89.5 µg/mL
MIC (Mathabe et al., 2008) [6]: > 200 µg/mL
MIC (Shai et al., 2008) (Candida albicans): 250 µg/mL (≈ 586 µM)
MIC (Shai et al., 2008) (Enterococcus feacalis): 63 µg/mL (≈ 148 µM)
MIC [2, 10]: 4 µg/mL (≈ 9.37 µM)

CC1(C)CC[C@]2(C)CC[C@]3(C)C(CCC4C5(C)CCC(O)C(C)(C)C5CC[C@]43C)C2C1 (stereo partly drawn) [Compound 1.2, β-amyrin]
MIC [2, 10]: 4 µg/mL (≈ 9.33 µM)
